In one data set the test system is rats. The experiment in a line: Single dose toxicity test in rats. It counts as in vivo, rat. The following applies: single oral dose, female rats, observed day 1 to day 2; approximate lethal dose. The protocol: The compound of Formula 7 and the compound of Formula 8 were orally administered to eight six-week-old female rats, to observe the single dose oral toxicity thereof and to obtain an approximate lethal dose. The dosage was set at 10 mL/kg, and the dosage for each rat was calculated based on body weight. Each compound was administered at doses of 100 mg/kg, 300 mg/kg, 900 mg/kg, and 1,500 mg/kg, and general symptoms were observed once a day from day 1 to day 2 after administration.

The test system of data set [1] is diffuse large B-cell lymphoma (DLBCL) and acute lymphocytic leukemia (ALL) cells. The data set is described as follows: Apoptosis of DLBCL and ALL cells by flow cytometry (Annexin V-FITC/PI). The format is cell-based. To be noted: 50 μM, 24 hours, FIG. 5. The protocol: The cells were washed with PBS, and then suspended in a binding buffer. 5 μl of an Annexin V-FITC stock solution (Becton Dickinson Science, Inc) and 5 μl of PI (20 μg/ml) were added thereto, followed by incubation at room temperature for 15 minutes with light-shielding, and then the target material was quantified on FACScan™ (Becton Dickinson) by flow cytometry.
For orientation: Flow cytometry measures light scatter and fluorescence of single cells or particles in a stream.

The target of the next data set is T1, PI3K p110γ (Homo sapiens, UniProt P48736).
T1 construct: purchased Thermo Fisher Scientific Inc. (SelectScreen Services)
The experiment in a line: PI3K kinase activity test (Adapta kinase assay), p110γ. It counts as biochemical. The protocol:
(§1) An experiment was conducted using a homogeneous, fluorescence-based immunoassay, which is Adapta kinase assay. SelectScreen™ Services available from Thermo Fisher Scientific Inc. was carried out.

In the next data set the target is T2, PI3K p110β (Homo sapiens, UniProt P42338).
T2 construct: purchased Thermo Fisher Scientific Inc. (SelectScreen Services)
The data set is described as follows: PI3K kinase activity test (Adapta kinase assay), p110β. It counts as biochemical. The protocol:
as §1

A further data set deals with Phospho-Akt (Ser473). The experiment in a line: AKT (Ser473) phosphorylation in leukemia and lymphoma cell lines (immunoblotting). The format is cell-based. The following applies: 1 μM, 1 hour; SUDHL 5, SUDHL 10, CCRF-SB, MOLT4; FIG. 2. The source says:
Subsequently, cells were lysed and fractionated according to size, followed by immunoblotting with antibodies directed against Phospho-Akt (Ser473).
(In general: Immunoblotting shows a protein as a band on a membrane.)

For data set [2], the system named is human umbilical vein endothelial cells (HUVECs). The experiment in a line: Angiogenesis inhibition, HUVEC tube formation. It counts as cell-based. To be noted: HUVECs on basement membrane matrix, 18 hours; FIG. 7. The protocol: After 18 hours, tube formation was photographed using a Cytation™ 5 fluorescence microscope (BioTek), and the number of areas formed by branch points was counted using software (see FIG. 6).

A further data set has as its system MOLT4 (ALL) cells. The data set is described as follows: Growth inhibition of leukemia cells (CCK-8), MOLT4. It counts as cell-based. The following applies: Homo sapiens, read-out: LC50 MOLT4 (ALL). The protocol: (§2) Cell growth-inhibiting effects on the DLBCL-derived cells and the ALL-derived cells were evaluated by measuring the absorbance of cell counting kit-8 (CCK-8) dye. During the last 3 hours of the 48 hours, […] of a CCK-8 dye was added to each plate and then cultured.
(§3) All data are expressed as the mean (±SD) of three independent experiments.

The target in a further data set is T3, PI3K p110α (Homo sapiens, UniProt P42336).
T3 construct: purchased Thermo Fisher Scientific Inc. (SelectScreen Services)
The experiment in a line: PI3K kinase activity test (Adapta kinase assay), p110α. The format is biochemical. As to the method: as §1

Another data set relates to SUDHL5 (DLBCL) cells. The experiment in a line: Growth inhibition of lymphoma cells (CCK-8), SUDHL5. It counts as cell-based. The following applies: Homo sapiens, read-out: LC50 SUDHL5 (DLBCL). As to the method:
as §2, §3

A further data set has as its system SupB15 (ALL) cells. The data set is described as follows: Growth inhibition of leukemia cells (CCK-8), SupB15. The following applies: Homo sapiens, read-out: LC50 SupB15 (ALL). The format is cell-based. The protocol: as §2, §3
For data set [3], the system named is diffuse large B-cell lymphoma (DLBCL) and acute lymphocytic leukemia (ALL) cells. The experiment in a line: Apoptosis of DLBCL and ALL cells by SDS-PAGE / immunoblotting (caspase 3, 9, PARP cleavage). The format is cell-based. The following applies: 50 μM, 36 hours; FIG. 4. The protocol:
Immunoblotting analysis was performed using antibodies of these, and glyceraldehyde-3-phosphate dehydrogenase (GAPDH) was used as a loading control.

The target in a further data set is T4, PI3K p110δ (Homo sapiens, UniProt O00329).
T4 construct: purchased Thermo Fisher Scientific Inc. (SelectScreen Services)
The experiment in a line: PI3K kinase activity test (Adapta kinase assay), p110δ. The format is biochemical. To be noted: for IC50: Adapta kinase assay; for ratio PI3Kα/PI3Kδ, as IC50 values / ratio PI3Kβ/PI3Kδ, as IC50 values / ratio of PI3Kγ/PI3Kδ: selectivity, ratio of IC50 values. As to the method: as §1

The subject of data set [4] is human umbilical vein endothelial cells (HUVECs). The data set is described as follows: Number of viable HUVECs treated with compound. To be noted: FIG. 8. It counts as cell-based.

One may read the IC50 as the concentration needed to halve the response being measured. Low readings indicate greater potency, high ones weaker potency.

Where two headings read alike, the source gives them in different places.

T4 sequence (O00329 whole entry): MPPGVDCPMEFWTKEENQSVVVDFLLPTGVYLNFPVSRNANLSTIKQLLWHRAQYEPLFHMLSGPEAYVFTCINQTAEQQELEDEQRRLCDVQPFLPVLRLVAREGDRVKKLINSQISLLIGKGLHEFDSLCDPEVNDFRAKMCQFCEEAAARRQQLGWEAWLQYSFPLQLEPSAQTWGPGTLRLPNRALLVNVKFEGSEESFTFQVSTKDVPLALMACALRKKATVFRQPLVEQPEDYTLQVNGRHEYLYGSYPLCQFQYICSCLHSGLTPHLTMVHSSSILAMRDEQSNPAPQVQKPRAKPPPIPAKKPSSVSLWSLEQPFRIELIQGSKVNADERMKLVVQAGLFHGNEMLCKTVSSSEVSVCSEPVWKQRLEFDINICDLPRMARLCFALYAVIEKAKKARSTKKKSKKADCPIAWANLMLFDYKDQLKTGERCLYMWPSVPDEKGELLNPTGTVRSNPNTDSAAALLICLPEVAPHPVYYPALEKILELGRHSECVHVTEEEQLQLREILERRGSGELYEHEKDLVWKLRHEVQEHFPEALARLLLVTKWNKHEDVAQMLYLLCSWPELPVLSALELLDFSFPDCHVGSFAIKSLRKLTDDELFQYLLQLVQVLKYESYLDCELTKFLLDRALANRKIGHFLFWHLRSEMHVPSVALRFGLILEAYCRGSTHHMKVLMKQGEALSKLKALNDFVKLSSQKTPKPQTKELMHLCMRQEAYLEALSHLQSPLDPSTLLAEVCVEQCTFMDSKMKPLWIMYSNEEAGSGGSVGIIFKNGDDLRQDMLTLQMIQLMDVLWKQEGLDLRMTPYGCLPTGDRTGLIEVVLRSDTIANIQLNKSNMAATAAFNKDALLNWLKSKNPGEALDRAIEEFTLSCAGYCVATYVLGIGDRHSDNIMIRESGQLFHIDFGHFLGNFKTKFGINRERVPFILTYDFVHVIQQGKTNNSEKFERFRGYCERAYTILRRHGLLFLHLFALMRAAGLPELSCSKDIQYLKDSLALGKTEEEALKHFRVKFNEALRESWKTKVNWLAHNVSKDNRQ
T4 sequence (P27986 whole entry partner): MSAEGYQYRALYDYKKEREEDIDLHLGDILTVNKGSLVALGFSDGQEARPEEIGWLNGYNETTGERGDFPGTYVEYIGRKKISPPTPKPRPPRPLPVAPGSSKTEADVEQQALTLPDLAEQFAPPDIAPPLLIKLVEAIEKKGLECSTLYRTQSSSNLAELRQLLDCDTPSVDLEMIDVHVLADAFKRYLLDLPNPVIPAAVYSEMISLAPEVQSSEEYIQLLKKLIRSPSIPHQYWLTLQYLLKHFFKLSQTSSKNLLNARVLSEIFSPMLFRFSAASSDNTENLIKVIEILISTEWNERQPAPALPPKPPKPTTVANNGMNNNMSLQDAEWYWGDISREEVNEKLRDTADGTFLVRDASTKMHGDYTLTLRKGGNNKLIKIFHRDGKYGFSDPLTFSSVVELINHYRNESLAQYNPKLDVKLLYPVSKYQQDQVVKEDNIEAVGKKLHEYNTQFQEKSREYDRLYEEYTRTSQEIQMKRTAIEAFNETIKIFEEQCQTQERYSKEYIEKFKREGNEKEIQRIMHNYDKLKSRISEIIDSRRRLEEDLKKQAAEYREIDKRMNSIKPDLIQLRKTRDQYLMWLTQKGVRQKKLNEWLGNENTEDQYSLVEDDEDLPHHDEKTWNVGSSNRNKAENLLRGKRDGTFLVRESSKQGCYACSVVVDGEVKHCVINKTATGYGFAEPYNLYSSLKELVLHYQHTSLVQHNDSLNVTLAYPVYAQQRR
T2 sequence (P42338 whole entry): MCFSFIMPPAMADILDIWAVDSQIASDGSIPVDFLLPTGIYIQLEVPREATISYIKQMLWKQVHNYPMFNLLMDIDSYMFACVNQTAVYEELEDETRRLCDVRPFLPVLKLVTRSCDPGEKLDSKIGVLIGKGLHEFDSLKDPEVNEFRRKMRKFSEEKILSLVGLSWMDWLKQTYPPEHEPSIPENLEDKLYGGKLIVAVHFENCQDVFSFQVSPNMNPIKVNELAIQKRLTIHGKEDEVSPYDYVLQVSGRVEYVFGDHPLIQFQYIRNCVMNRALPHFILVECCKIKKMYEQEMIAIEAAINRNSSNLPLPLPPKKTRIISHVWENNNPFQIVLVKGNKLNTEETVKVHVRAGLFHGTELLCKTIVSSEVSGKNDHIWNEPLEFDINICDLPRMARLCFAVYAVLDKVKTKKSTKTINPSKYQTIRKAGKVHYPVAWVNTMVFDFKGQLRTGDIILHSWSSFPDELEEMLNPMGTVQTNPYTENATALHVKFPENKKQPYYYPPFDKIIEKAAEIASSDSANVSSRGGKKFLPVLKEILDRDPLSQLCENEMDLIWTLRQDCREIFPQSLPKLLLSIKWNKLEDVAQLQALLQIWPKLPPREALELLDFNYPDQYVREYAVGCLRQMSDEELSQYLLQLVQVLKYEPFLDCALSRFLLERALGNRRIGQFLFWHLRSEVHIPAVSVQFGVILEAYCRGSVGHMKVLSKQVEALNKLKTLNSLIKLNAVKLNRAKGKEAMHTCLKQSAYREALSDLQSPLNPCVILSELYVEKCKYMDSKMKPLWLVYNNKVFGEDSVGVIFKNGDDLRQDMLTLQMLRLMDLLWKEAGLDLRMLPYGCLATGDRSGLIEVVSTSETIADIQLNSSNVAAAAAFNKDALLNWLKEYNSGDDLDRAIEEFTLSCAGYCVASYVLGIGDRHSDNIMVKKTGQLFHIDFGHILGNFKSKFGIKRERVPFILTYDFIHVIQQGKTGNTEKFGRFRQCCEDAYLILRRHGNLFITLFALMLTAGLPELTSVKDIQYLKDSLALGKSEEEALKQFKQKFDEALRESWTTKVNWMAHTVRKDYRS
T2 sequence (P27986 whole entry partner): as the sequence (P27986 whole entry partner) above
T1 sequence (P48736 whole entry): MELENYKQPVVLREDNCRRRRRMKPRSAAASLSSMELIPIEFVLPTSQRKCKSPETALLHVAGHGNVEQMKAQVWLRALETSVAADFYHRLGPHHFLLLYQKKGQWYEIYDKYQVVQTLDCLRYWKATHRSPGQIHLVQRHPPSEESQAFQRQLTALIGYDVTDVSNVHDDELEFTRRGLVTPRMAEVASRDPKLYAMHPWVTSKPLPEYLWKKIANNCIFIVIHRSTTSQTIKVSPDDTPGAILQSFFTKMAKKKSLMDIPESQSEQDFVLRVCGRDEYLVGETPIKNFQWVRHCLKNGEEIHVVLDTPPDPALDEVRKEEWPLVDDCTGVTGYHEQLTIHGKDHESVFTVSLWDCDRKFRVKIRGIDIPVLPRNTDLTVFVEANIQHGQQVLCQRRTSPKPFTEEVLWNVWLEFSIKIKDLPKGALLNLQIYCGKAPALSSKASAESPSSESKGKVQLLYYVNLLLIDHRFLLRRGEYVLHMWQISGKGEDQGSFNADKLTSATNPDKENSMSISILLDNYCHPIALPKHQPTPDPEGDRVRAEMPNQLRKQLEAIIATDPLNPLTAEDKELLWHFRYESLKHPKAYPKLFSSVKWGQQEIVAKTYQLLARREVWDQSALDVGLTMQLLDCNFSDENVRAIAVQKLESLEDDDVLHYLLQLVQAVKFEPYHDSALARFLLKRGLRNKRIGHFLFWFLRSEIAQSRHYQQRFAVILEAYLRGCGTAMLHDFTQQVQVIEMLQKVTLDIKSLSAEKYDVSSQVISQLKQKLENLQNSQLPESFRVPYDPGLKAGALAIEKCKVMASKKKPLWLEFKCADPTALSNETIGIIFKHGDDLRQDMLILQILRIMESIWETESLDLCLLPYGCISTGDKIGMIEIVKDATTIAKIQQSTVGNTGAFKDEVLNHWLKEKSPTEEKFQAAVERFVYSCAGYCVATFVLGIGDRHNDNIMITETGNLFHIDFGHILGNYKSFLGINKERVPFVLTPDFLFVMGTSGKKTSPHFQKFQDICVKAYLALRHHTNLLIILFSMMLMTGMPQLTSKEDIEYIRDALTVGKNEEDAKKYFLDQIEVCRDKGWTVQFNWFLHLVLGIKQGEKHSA
T3 sequence (P42336 whole entry): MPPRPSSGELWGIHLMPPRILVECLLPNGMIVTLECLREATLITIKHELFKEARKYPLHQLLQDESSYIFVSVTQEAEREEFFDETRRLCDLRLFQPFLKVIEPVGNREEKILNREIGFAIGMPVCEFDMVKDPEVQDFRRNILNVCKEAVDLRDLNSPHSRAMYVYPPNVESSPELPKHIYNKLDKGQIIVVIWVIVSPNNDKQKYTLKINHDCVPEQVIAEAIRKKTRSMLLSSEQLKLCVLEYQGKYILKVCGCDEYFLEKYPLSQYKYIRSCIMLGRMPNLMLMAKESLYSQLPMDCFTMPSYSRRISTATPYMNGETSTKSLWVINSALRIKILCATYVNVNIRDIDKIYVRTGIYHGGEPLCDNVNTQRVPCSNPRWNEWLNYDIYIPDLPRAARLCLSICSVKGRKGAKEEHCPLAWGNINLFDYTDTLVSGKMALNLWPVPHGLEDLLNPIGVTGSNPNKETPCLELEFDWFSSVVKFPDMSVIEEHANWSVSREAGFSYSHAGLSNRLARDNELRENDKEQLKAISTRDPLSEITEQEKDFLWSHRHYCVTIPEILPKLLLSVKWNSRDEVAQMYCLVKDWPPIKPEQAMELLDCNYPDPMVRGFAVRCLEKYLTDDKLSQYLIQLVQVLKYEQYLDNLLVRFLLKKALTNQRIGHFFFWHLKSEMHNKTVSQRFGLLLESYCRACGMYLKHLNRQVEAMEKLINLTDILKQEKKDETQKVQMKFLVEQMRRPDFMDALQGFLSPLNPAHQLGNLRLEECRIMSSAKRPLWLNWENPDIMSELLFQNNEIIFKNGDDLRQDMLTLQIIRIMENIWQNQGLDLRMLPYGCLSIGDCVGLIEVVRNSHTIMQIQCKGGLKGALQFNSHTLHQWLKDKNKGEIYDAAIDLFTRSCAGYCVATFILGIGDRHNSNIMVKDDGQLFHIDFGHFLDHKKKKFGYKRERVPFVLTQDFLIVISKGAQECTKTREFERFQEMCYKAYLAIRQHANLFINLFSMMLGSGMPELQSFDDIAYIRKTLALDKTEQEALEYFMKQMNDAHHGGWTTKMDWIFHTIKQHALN
T3 sequence (P27986 whole entry partner): as the sequence (P27986 whole entry partner) above

Turning to `O=c1c2c(F)cccc2nc([C@@H](Nc2ncnc3nc[nH]c23)C2CC2)n1-c1ccccc1` [Formula 7, (S)-2-(((7H-purin-6-yl)amino)(cyclopropyl)methyl)-5-fluoro-3-phenylquinazolin-4(3H)-one], the lethal dose in the data set on rats is > 1,500 mg/kg. Also, the “apoptosis induction compared with idelalisib (flow cytometry)” value in data set [1] is “more effectively induced apoptosis than the comparative drug”. The IC50 is 25.7 nM against PI3K p110γ, 105 nM against PI3K p110β, 206 nM on PI3K p110α and 0.5 nM on PI3K p110δ. For the same compound, the “reduction of AKT (Ser473) phosphorylation” value with Phospho-Akt (Ser473) was “induced the reduction of AKT phosphorylation”. Besides, in data set [2], the “inhibition of angiogenesis (tube formation) compared with idelalisib” value is “inhibited angiogenesis more than the comparative drug”. Also, the CC50 is 13700 nM in the data set on MOLT4 (ALL) cells (MOLT-4, 48 h); 1100 nM in the data set on SUDHL5 (DLBCL) cells (SU-DHL-5, 48 h); more than 20000 nM in the data set with SupB15 (ALL) cells (SUP-B15, 48 h). Moreover, the “apoptosis compared with comparative drug idelalisib (SDS-PAGE)” value in [3] is given as “apoptosis occurred more actively”. The “apoptosis induction (SDS-PAGE, immunoblotting)” value in data set [3] was “induced apoptosis”. The “ratio PI3Kα/PI3Kδ, as IC50 values” on PI3K p110δ stood at 412. For the same compound, the “ratio PI3Kβ/PI3Kδ, as IC50 values” at PI3K p110δ came out at 210. In addition, the “ratio of PI3Kγ/PI3Kδ” value on PI3K p110δ came to 51. Also, the “cytotoxicity to HUVECs (number of viable cells)” value in data set [4] is “did not significantly affect the cytotoxicity”.
Consider `CC[C@H](Nc1ncnc2[nH]cnc12)c1nc2cccc(F)c2c(=O)n1-c1ccccc1` [Idelalisib, idelalisib, reference compound], for which the CC50 was more than 20000 nM in the data set on MOLT4 (ALL) cells (MOLT-4, 48 hours, CCK-8); 3000 nM with SUDHL5 (DLBCL) cells (SU-DHL-5, 48 hours, CCK-8); more than 20000 nM in the data set with SupB15 (ALL) cells (SUP-B15, 48 hours, CCK-8).
`Cc1cccc2nc([C@@H](Nc3ncnc4nc[nH]c34)C3CC3)n(-c3ccccc3)c(=O)c12` [Formula 8, (S)-2-(((7H-purin-6-yl)amino)(cyclopropyl)methyl)-5-methyl-3-phenylquinazolin-4(3H)-one]: the lethal dose with rats is given as 1,500 mg/kg. In addition, the “apoptosis induction compared with idelalisib (flow cytometry)” value in [1] was “more effectively induced apoptosis than the comparative drug”. Further, the half-maximal inhibitory concentration (IC50) against PI3K p110γ was found to be 8.6 nM; at PI3K p110β, 162 nM; at PI3K p110α, 134 nM; on PI3K p110δ, 0.09 nM. For the same compound, the “reduction of AKT (Ser473) phosphorylation” value with Phospho-Akt (Ser473) is on record as “induced the reduction of AKT phosphorylation”. For the same compound, the “inhibition of angiogenesis (tube formation) compared with idelalisib” value in data set [2] was “inhibited angiogenesis more than the comparative drug”. Further, the CC50 with MOLT4 (ALL) cells (MOLT-4, 48 h) came to 4900 nM; in the data set with SUDHL5 (DLBCL) cells (SU-DHL-5, 48 h) it was 900 nM; with SupB15 (ALL) cells (SUP-B15, 48 h), 16500 nM. The “apoptosis compared with comparative drug idelalisib (SDS-PAGE)” value in data set [3] was “apoptosis occurred more actively”. Besides, in data set [3], the “apoptosis induction (SDS-PAGE, immunoblotting)” value is listed as “induced apoptosis”. For the same compound, the “ratio PI3Kα/PI3Kδ, as IC50 values” on PI3K p110δ is given as 1,488. Also, the “ratio PI3Kβ/PI3Kδ, as IC50 values” on PI3K p110δ is 1,800. Further, the “ratio of PI3Kγ/PI3Kδ” value at PI3K p110δ is listed as 95. Also, the “cytotoxicity to HUVECs (number of viable cells)” value in data set [4] is “did not significantly affect the cytotoxicity”.

These data come from patent publication US10577369B2, “Substituted quinazolinones for inhibiting PI3K” (priority 2016, dated 2020).
